Measurements from US5246966A, “Substituted alkenoic acid and its derivatives” (Bayer Aktiengesellschaft, priority 1991, dated 1993).

Biological target: T1, LTD4 receptor ([3H-LTD4] binding to guinea-pig lung membranes) (Cavia porcellus, UniProt Q2NNR5)
T1 construct: guinea-pig lung membranes; from tissue; host or cells: guinea-pig lung membranes
T1 sequence (Q2NNR5 1-340): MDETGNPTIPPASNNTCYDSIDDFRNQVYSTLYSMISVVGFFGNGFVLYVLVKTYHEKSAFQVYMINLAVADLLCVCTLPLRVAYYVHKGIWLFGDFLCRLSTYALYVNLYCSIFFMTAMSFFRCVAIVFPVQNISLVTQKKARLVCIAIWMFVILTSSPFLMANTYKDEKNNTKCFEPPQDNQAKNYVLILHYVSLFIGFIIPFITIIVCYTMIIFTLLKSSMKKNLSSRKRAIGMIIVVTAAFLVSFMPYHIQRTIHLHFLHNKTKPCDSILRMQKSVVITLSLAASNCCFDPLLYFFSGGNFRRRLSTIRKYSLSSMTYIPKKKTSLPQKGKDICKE
Experiment: [3H]-LTD4 binding assay
Settings: displacement of 0.8 nM 3H-LTD4 from guinea-pig lung membranes, 15 minutes at 20° C., pH 7.4; Cheng and Prusoff correction of IC50; read-out: pKi [3H-LTD4] (converted)
Protocol: To evaluate the pharmacological properties the receptor affinity of the compounds were determined by measuring its ability to displace [^3 H-LTD4 ] binding to guinea-pig lung membranes.
Test method: [^3 H]-LTD4 BINDING ASSAY
Increasing concentrations (between 10^-8 and 10^-5 M) of compounds of general formula I were incubated with 0.8 nM^3 H-LTD4 and guinea-pig lung membranes (100-150 μg protein) for 15 minutes at 20° C. in an assay buffer of 10 mM L-cysteine and 1% polypep in 50 mM Tris HCl at pH 7.4. Incubations (total volume 0.25 ml) were terminated by addition of ice-cold Tris HCl (pH 7.4) and rapidly filtered through Whatman GF/C filters which were washed twice with ice-cold buffer. All points were determined in triplicate.
The counts (dpm) bound to each filter were determined by liquid scintillation spectrometry. The amount bound in the presence of each concentration of test compound was compared to the amount of binding in the absence of test compound […] and to the amount bound in the presence of 2 μm LTD4. […]
Where 0.8 nM is the dissociation constant for ^3 H-LTD4 under these conditions and [^3 H-LTD4 ] is the precise concentration (in nM) employed in the assay (also determined by liquid scintillation counting).

SMILES: O=C(O)CC[C@@H](/C=C\Cc1ccc(OCCCCOc2ccccc2)cc1)Sc1ccc(C(=O)O)cc1 [Example No. 4, Z-[4S]-4-(4-Carboxyphenylthio)-7-[4-(4-phenoxybutoxy)-phenyl]-5-heptenoic acid]
- Ki: 31.6 nM
